These results are taken from patent US9000002B2, “N1-substituted-5-fluoro-2-oxopyrimidinone-1(2H)-carboxamide derivatives” (Dow Agrosciences LLC, priority 2009, dated 2015).

Where two headings read alike, the source gives them in different places.

Series [1] concerns Mycosphaerella graminicola; Anamorph: Septoria tritici; Bayer Code SEPTTR. The series is described as follows: Evaluation of fungicidal activity: leaf blotch of wheat (SEPTTR), wheat plants variety Yuma. Type of series: in vivo. To be noted: Zymoseptoria tritici, 100 ppm, wheat plants, percent control vs untreated inoculated plants. The method, then:
Evaluation of Fungicidal Activity: Leaf Blotch of Wheat (Mycosphaerella graminicola; Anamorph: Septoria tritici; Bayer Code […]) Wheat plants (variety Yuma) were grown from seed in a greenhouse in 50% mineral soil/50% soil-less Metro mix until the first leaf was fully emerged, with 7-10 seedlings per pot. These plants were inoculated with an aqueous spore suspension of Septoria tritici either prior to or after fungicide treatments. After inoculation the plants were kept in 100% relative humidity (one day in a dark dew chamber followed by two to three days in a lighted dew chamber) to permit spores to germinate and infect the leaf. The plants were then transferred to a greenhouse for disease to develop. The following table presents the activity of typical compounds of the present disclosure when evaluated in these experiments. The effectiveness of the test compounds in controlling disease was determined by assessing the severity of disease on treated plants, then converting the severity to percent control based on the level of disease on untreated, inoculated plants. • In each case of Table II the rating scale is as follows: […]

Setting [2] is: 24 h, One-Day Protectant (1DP), read-out: SEPTTR 100 PPM 1DP (% Disease Control rating).
[3] abbreviates: 72 h, Three-Day Curative (3DC), read-out: SEPTTR 100 PPM 3DC (% Disease Control rating).

As to `CN(C)/C=N/c1nc(=O)n(C(=O)NCc2ccccc2)cc1F` [Compound 3, (E)-N-benzyl-4-((dimethylamino)methyleneamino)-5-fluoro-2-oxopyrimidine-1(2H)-carboxamide], the melting point (as a rule, the temperature of the solid-liquid transition) fell in the range of 147 to 150 °C. In addition, the pest or weed control at 100 ppm in series [1] (setting [2]) was in the range of 76 to 100%. The pest or weed control at 100 ppm in series [1] (setting [3]) is 76 to 100%.

Consider `COc1cccc(NC(=O)n2cc(F)c(N)nc2=O)c1` [Compound 16], for which the melting point is 242 to 244 °C. Besides, the pest or weed control at 100 ppm in series [1] (setting [2]) lay in the range of 76 to 100%. Also, the pest or weed control at 100 ppm in series [1] (setting [3]) is 76 to 100%.

In the case of `CCNC(=O)n1cc(F)c(NC(=O)c2ccccc2)nc1=O` [Compound 44], the melting point lay in the range of 249 to 251 °C. For the same compound, the pest or weed control at 100 ppm in series [1] (setting [2]) fell in the range of 76 to 100%. In addition, in series [1] (setting [3]), the pest or weed control at 100 ppm lay within 76 to 100%.

Turning to `CCOC(=O)CCNC(=O)n1cc(F)c(/N=C/N(C)C)nc1=O` [Compound 2], the melting point was in the range of 232 to 236 °C. Besides, the pest or weed control at 100 ppm in series [1] (setting [2]) lay within 76 to 100%. Moreover, in series [1] (setting [3]), the pest or weed control at 100 ppm is 76 to 100%.

Turning to `CCCNC(=O)n1cc(F)c(NC(=O)c2ccccc2)nc1=O` [Compound 40], the melting point is 258 to 260 °C. For the same compound, the pest or weed control at 100 ppm in series [1] (setting [2]) is 76 to 100%. Also, in series [1] (setting [3]), the pest or weed control at 100 ppm is 76 to 100%.

For the compound `CN(C(=S)n1cc(F)c(N)nc1=O)c1cc(Cl)cc(Cl)c1` [Compound 36], the melting point lay in the range of 200 to 203 °C. The pest or weed control at 100 ppm in series [1] (setting [2]) lay within 76 to 100%. For the same compound, the pest or weed control at 100 ppm in series [1] (setting [3]) was 76 to 100%.

`O=C(Nc1nc(=O)n(C(=O)NCc2ccc(Cl)cc2)cc1F)c1ccccc1` [Compound 48]: the melting point was in the range of 210 to 212 °C. Also, the pest or weed control at 100 ppm in series [1] (setting [2]) was in the range of 76 to 100%. In addition, the pest or weed control at 100 ppm in series [1] (setting [3]) lay within 76 to 100%.

In turn, `COc1ccccc1CNC(=O)Nc1nc(=O)n(C(=O)NC(C)C)cc1F` [Compound 50] yielded a melting point of 251 to 253 °C. In addition, in series [1] (setting [2]), the pest or weed control at 100 ppm is 0 to 25%. Besides, the pest or weed control at 100 ppm in series [1] (setting [3]) lay within 0 to 25%.
